According to BigSolDB 2.1:

O=C([O-])/C=C/C(=O)O.[Na+]
solubility (mole fraction)
Settings | 283.15 K | 293.15 K | 303.15 K | 313.15 K | 323.15 K
in 1,4-dioxane | – | 0.000152 | 0.000165 | 0.000185 | 0.000234
in acetone | – | 2.81e-05 | 3.78e-05 | 4.83e-05 | 6.67e-05
in acetonitrile | 4.79e-05 | 5.26e-05 | 5.58e-05 | 6.32e-05 | 7.05e-05
in ethanol | 5.51e-05 | 6.4e-05 | 7.35e-05 | 8.74e-05 | 9.51e-05
in ethyl acetate | 9.88e-05 | 0.000121 | 0.000167 | 0.000219 | 0.000284
in isobutanol | 9.6e-06 | 1.26e-05 | 1.62e-05 | 2.36e-05 | 3.17e-05
in isopropanol | 2.3e-05 | 3.02e-05 | 4.08e-05 | 5.16e-05 | 6.76e-05
in methanol | 0.000417 | 0.000454 | 0.000495 | 0.000532 | 0.000572
in n-butanol | 2.25e-05 | 4.63e-05 | 5.97e-05 | 7.6e-05 | 9.43e-05
in n-pentanol | 3.44e-05 | 4.21e-05 | 4.93e-05 | 5.45e-05 | 6.5e-05
in n-propanol | 4.82e-05 | 6.3e-05 | 7.13e-05 | 8.71e-05 | 0.000102
in water | 0.00712 | 0.00908 | 0.0114 | 0.0138 | 0.0172
